Experimental data reported in US20250339547A1, “MET BCL-XL INHIBITOR ANTIBODY-DRUG CONJUGATES AND METHODS OF USE THEREOF” (Novartis AG, priority 2022, published 2025).
Blank lines part the entries; values can stand above or below the compound they belong to. Non-standard residues stand in square brackets, D forms with d. Residues, ends and D or L forms follow the SMILES beside them. *: point of attachment. Dolaproine = CO[C@@H]([C@@H]1CCCN1)[C@@H](C)C(=O)O; Dil = CC[C@H](C)[C@H](NC)[C@@H](CC(=O)O)OC; X1 = C[C@@H](N*)[C@@H](O)c1ccccc1; NMeV = CN[C@H](C(=O)O)C(C)C

Assays:
[1] = test system: T-ALL (T-cell Acute Lymphoblastic Leukemia) and different types of solid tumors; settings: cited from earlier work
[2] = test system: hematological malignancies and solid tumors; settings: several hematological malignancies and solid tumors; cited from earlier work
lymphoid malignancies = settings: cited from earlier work
lymphocyte proliferation = settings: in vitro; cited from earlier work
arthritis and lupus = settings: mice, animal models of arthritis and lupus; cited from earlier work
allogeneic T-cell = settings: in vitro; cited from earlier work
[3] = test system: allogeneic T- and B-cell responses; settings: after skin transplantation; cited from earlier work
AsPC-1 = test: Pancreatic cancer cell line viability, single agent or 1:1 combination (CTG 120h), Example 10; format: cell-based; settings: Homo sapiens, ASPC1, 120 h, AsPC-1, CTG 120 h
Protocol: (§1) Cell lines were cultured in the media described above at 37° C. in a humidified atmosphere containing 5% CO2. Cells were seeded in 96 well clear bottom plates (96 well clear-bottom, white, Corning reference 3903) and exposed to the mAbs or ADCs as single agents or in 1:1 combination with Paclitaxel, Trametinib or Gemcitabine. When in 1:1 combination, both the combining partner (Paclitaxel, Trametinib or Gemcitabine) and the mAb or ADC were serially diluted (9 concentrations each, triplicates). Effect on cell viability was assessed after 5 days of incubation at 37° C./5% CO2 by quantification of cellular ATP levels using CellTiter-Glo reagent (Promega Ref: G7571) at 75 μL reagent/well. All the conditions were tested in triplicates. Luminescence was quantified on a multipurpose plate reader. IC50s were calculated using standard four-parametric curve fitting. IC50 is defined as the compound concentration at which the CTG signal is reduced to 50% of that measured for the control. Two independent experiments were performed (N1 and N2).

BxPC-3 = test: as above; format: cell-based; settings: Homo sapiens, BXPC-3, 120 h, BxPC-3, CTG 120 h
Protocol: as §1

Hs766T = test: as above; format: cell-based
Protocol: as §1

KP-4 = test: as above; format: cell-based; settings: Homo sapiens, KP-4, 120 h, KP-4, CTG 120 h
Protocol: as §1

Panc 10.05 = test: as above; format: cell-based; settings: Homo sapiens, Panc1005, 120 h, Panc 10.05, CTG 120 h
Protocol: as §1

[4] = test system: pancreatic cancer cell lines; test: Pancreatic cancer cell line panel of Example 10 (CTG 120h); format: cell-based; settings: pancreatic cancer cell lines of Table 16, single agents
Protocol: Cell lines were cultured in the media described above at 37° C. in a humidified atmosphere containing 5% CO2. […] When in 1:1 combination, both the combining partner (Paclitaxel, Trametinib or Gemcitabine) and the mAb or ADC were serially diluted (9 concentrations each, triplicates). Effect on cell viability was assessed after 5 days of incubation at 37° C./5% CO2 by quantification of cellular ATP levels using CellTiter-Glo reagent (Promega Ref: G7571) at 75 μL reagent/well. All the conditions were tested in triplicates. Luminescence was quantified on a multipurpose plate reader. IC50s were calculated using standard four-parametric curve fitting. […] Two independent experiments were performed (N1 and N2).

CALU1 = test: Lung cancer cell line viability, single agent or 1:1 combination (CTG 120h), Example 7; format: cell-based; settings: CALU1, CTG 120 h
Protocol: (§2) Cell lines were cultured in the media described above at 37° C. in a humidified atmosphere containing 5% CO2. Cells were seeded in 96 well clear bottom plates (96 well clear-bottom, white, Corning reference 3903) and exposed to the mAbs, mAbs mixture, ADCs or ADCs mixture as single agents or in 1:1 combination with Paclitaxel. When in 1:1 combination, both the combining partner (Paclitaxel) and the mAb, mAb mixture, ADC or ADC mixture were serially diluted (9 concentrations each, triplicates). Effect on cell viability was assessed after 5 days of incubation at 37° C./5% CO2 by quantification of cellular ATP levels using CellTiter-Glo reagent (Promega Ref: G7571) at 75 μL reagent/well. All the conditions were tested in triplicates. Luminescence was quantified on a multipurpose plate reader. IC50s were calculated using standard four-parametric curve fitting. IC50 is defined as the compound concentration at which the CTG signal is reduced to 50% of that measured for the control. Two independent experiments were performed (N1 and N2).

HCC366 = test: as above; format: cell-based; settings: HCC366, CTG 120 h
Protocol: as §2

HCC4006 = test: as above; format: cell-based; settings: HCC4006, CTG 120 h
Protocol: as §2

HCC78 = test: as above; format: cell-based; settings: HCC78, CTG 120 h
Protocol: as §2

HCC827 = test: as above; format: cell-based; settings: HCC827, CTG 120 h
Protocol: as §2

LU65 = test: as above; format: cell-based; settings: LU65, CTG 120 h
Protocol: as §2

NCI-H1838 = test: as above; format: cell-based; settings: NCI-H1838, CTG 120 h
Protocol: as §2

NCI-H1975 = test: as above; format: cell-based; settings: NCI-H1975, CTG 120 h
Protocol: as §2

NCI-H441 = test: as above; format: cell-based; settings: NCI-H441, CTG 120 h
Protocol: as §2

H1650 xenografts = test: In vivo efficacy in combination with osimertinib in Met non amplified NCI-H1650 lung adenocarcinoma human cell model, Example 16; design: species or system SCID mice; settings: osimertinib 15 mg/kg orally on day 1, 2, 3, 4, 7, 8, 9, alone
Text: Below are the procedures for determining the in vivo therapeutic effect of different Bcl-xL ADCs targeting the Met protein as a single agent or in combination with osimertinib. Their activities are compared to the corresponding naked anti-Met mAbs or Ab G-L42C-P25 (Isotype control/non-targeting ADC) formulated in Phosphate-Buffered Saline (PBS) in a Met non amplified NCI-H1650 lung adenocarcinoma human cell line after intravenous (IV) administration.
NCI-H1650 cells, obtained from ATCC, were cultured in RPMI supplemented with 10% SBS, 1% Penicillin-Streptomycin and 1% HEPES. Cells were resuspended in 50% Matrigel® (Corning®) and 0.1 ml containing 10×10^6 cells were subcutaneously inoculated into the right flank of female SCID mice, provided by JANVIER labs.
When tumors reached the appropriate volume (100-200 mm3), mice were randomized, 6 animals per group, using Easy stat software. […]
Mice body weight was monitored 3 times a week and tumor size measured using electronic calipers. […] The last day with at least half of control animals still present in the study (d25), tumor growth inhibition was calculated using the formula: […]
With DTV (Delta Tumor Volume) at Dx, calculated being TV at Dx−TV at Randomization. […]

Compound: CN(C)CC#Cc1ccc(OCCCc2sc(N3CCc4cccc(C(=O)Nc5nc6ccccc6s5)c4C3)nc2C(=O)O)c(F)c1 [A-1155463]
in vivo activity in pre-clinical models [1]: exhibited in vivo activity

Compound: Cc1c(-c2ccc(N3CCc4cccc(C(=O)Nc5nc6ccccc6s5)c4C3)nc2C(=O)O)cnn1CC12CC3CC(CC(C3)C1)C2 [A-1331852]
in vivo activity in pre-clinical models [1]: exhibited in vivo activity

Compound: CC1(C)CCC(c2ccc(Cl)cc2)=C(CN2CCN(c3ccc(C(=O)NS(=O)(=O)c4ccc(N[C@H](CCN5CCOCC5)CSc5ccccc5)c(S(=O)(=O)C(F)(F)F)c4)cc3)CC2)C1 [ABT-263, navitoclax]
activity in pre-clinical models [2]: has shown activity
antitumor activity in clinical studies (lymphoid malignancies): objective antitumor activity

Compound: CN(C)CC[C@H](CSc1ccccc1)Nc1ccc(S(=O)(=O)NC(=O)c2ccc(N3CCN(Cc4ccccc4-c4ccc(Cl)cc4)CC3)cc2)cc1[N+](=O)[O-] [ABT-737]
inhibition of lymphocyte proliferation (lymphocyte proliferation): potent inhibition
disease severity (arthritis and lupus): significant decrease in disease severity
allogeneic T-cell activation, proliferation, and cytotoxicity (allogeneic T-cell): prevented
allogeneic T- and B-cell responses [3]: inhibited

IC50 (AsPC-1; mean): 241 nM
IC50 (AsPC-1; n1): 406 nM
IC50 (AsPC-1; n2): 75.2 nM
IC50 (BxPC-3; mean): 13 nM
IC50 (BxPC-3; n1): 10.7 nM
IC50 (BxPC-3; n2): 15.3 nM
IC50 (Hs766T; mean): > 30000 nM
IC50 (Hs766T; n1): > 30000 nM
IC50 (Hs766T; n2): > 30000 nM
IC50 (KP-4; mean): 10.9 nM
IC50 (KP-4; n1): 9.74 nM
IC50 (KP-4; n2): 12 nM
IC50 (Panc 10.05; mean): 68.3 nM
IC50 (Panc 10.05; n1): 58.8 nM
IC50 (Panc 10.05; n2): 77.9 nM
Compound: Nc1ccn([C@@H]2O[C@H](CO)[C@@H](O)C2(F)F)c(=O)n1 [Gemcitabine, gemcitabine]
effect on the viability [4]: induced dose dependent decrease in cell viability with measurable IC50 for most of the cell lines

Compound: CC[C@H](C)[C@@H]([C@@H](CC(=O)N1CCC[C@H]1[C@H](OC)[C@@H](C)C(=O)N[C@H](C)[C@@H](O)c1ccccc1)OC)N(C)C(=O)[C@@H](NC(=O)[C@@H](NC)C(C)C)C(C)C [MMAE, monomethyl auristatin E] (H-[NMeV]V[Dil][Dolaproine]-X1)
IC50 (CALU1; Mean): 1.01 nM
IC50 (CALU1; n1): 0.64 nM
IC50 (CALU1; n2): 1.37 nM
IC50 (HCC366; Mean): 0.645 nM
IC50 (HCC366; n1): 0.53 nM
IC50 (HCC366; n2): 0.76 nM
IC50 (HCC4006; Mean): 0.19 nM
IC50 (HCC4006; n1): 0.12 nM
IC50 (HCC4006; n2): 0.26 nM
IC50 (HCC78; Mean): 0.57 nM
IC50 (HCC78; n1): 0.54 nM
IC50 (HCC78; n2): 0.6 nM
IC50 (HCC827; Mean): 1.3 nM
IC50 (HCC827; n1): 1.46 nM
IC50 (HCC827; n2): 1.15 nM
IC50 (LU65; Mean): 0.83 nM
IC50 (LU65; n1): 0.7 nM
IC50 (LU65; n2): 0.96 nM
IC50 (NCI-H1838; Mean): 60.1 nM
IC50 (NCI-H1838; n1): 88.2 nM
IC50 (NCI-H1838; n2): 32 nM
IC50 (NCI-H1975; Mean): 0.25 nM
IC50 (NCI-H1975; n1): 0.25 nM
IC50 (NCI-H441; Mean): 0.38 nM
IC50 (NCI-H441; n1): 0.4 nM
IC50 (NCI-H441; n2): 0.36 nM

Compound: C=CC(=O)Nc1cc(Nc2nccc(-c3cn(C)c4ccccc34)n2)c(OC)cc1N(C)CCN(C)C [Osimertinib, osimertinib]
TGI % (d 25) (H1650 xenografts): 86.3%

IC50 (AsPC-1; mean): 9.81 nM
IC50 (AsPC-1; n1): 9.01 nM
IC50 (AsPC-1; n2): 10.6 nM
IC50 (BxPC-3; mean): 11.7 nM
IC50 (BxPC-3; n1): 8.21 nM
IC50 (BxPC-3; n2): 15.2 nM
IC50 (Hs766T; mean): 2.82 nM
IC50 (Hs766T; n1): 2.53 nM
IC50 (Hs766T; n2): 3.1 nM
IC50 (KP-4; mean): 1660 nM
IC50 (KP-4; n1): 620 nM
IC50 (KP-4; n2): 2710 nM
IC50 (Panc 10.05; mean): 57.5 nM
IC50 (Panc 10.05; n1): 32.4 nM
IC50 (Panc 10.05; n2): 82.6 nM
Compound: CC(=O)Nc1cccc(-n2c(=O)n(C3CC3)c(=O)c3c(Nc4ccc(I)cc4F)n(C)c(=O)c(C)c32)c1 [Trametinib, N-(3-{3-cyclopropyl-5-[(2-fluoro-4-iodophenyl)amino]-6,8-dimethyl-2,4,7-trioxo-3,4,6,7-tetrahydropyrido[4,3-d]pyrimidin-1(2H)-yl}phenyl)acetamide]
effect on the viability [4]: induced dose dependent decrease in cell viability with measurable IC50 for most of the cell lines
